“And” between values parts separate entries of the source, which are not always exact repeats. Identical values can stand only once.
What was measured:
[1] = system: MDA-435 human breast tumor; assay: In vivo tumor growth inhibition assay, compound plus Paclitaxel given IV to tumor-bearing mice; design: species or system CD-1 nu/nu mice; conditions: for % Tumor Growth: vehicle = 100
Protocol: A supplemented media was prepared from 50% DMEM/Dulbecco Modified Eagle Medium (High Glucose), 50% RPMI 1640, 10% FBS/Fetal Bovine Serum (Hybridoma Tested; Sterile Filtered), 1% L-Glutamine, 1% Penicillin-Streptomycin, 1% MEM Sodium Pyruvate and 1% MEM Non-Essential Amino Acids. FBS was obtained from Sigma Chemical Co. and other ingredients were obtained from Invitrogen Life Technologies, USA). The supplemental media was warmed to 37° C. and 50 ml of media was added to a 175 cm^2 tissue culture flask.
The cells used in the assay were MDA-435 Human Breast Carcinoma from the American Type Culture Collection. 1 vial of MDA-435 cells from the liquid nitrogen frozen cell stock was removed. The frozen vial of cells was immediately placed into a 37° C. water bath and gently swirled until thawed. The freeze-vial was wiped with 70% ethanol and cells were immediately pipetted into the 175 cm^2 tissue culture flask containing supplemented media. The cells were incubated overnight and the media was removed and replaced with fresh supplemented media the next day. The flask was incubated until flask became about 90% confluent. This took anywhere from 5-7 days.
The flask was washed with 10 ml of sterile room temperature phosphate buffered saline (PBS). The cells were trypsinized by adding 5 ml of warmed Trypsin-EDTA (Invitrogen) to the flask of cells. […] An equal volume of supplemented media (5 ml) was added to the flask. All the cells were collected into 50 ml tube, and centrifuged at 1000 RPM for 5 minutes at 20° C. The supernatant was aspirated and the cell pellet was resuspended in 10 ml of supplemented media and the cells were counted. 1-3 million cells/flask were seeded into 5-7 tissue culture flasks (175 cm^2). Each flask contained 50 ml of supplemented media. The flasks were incubated until about 90% confluent. The passaging of the cells was repeated until enough cells have been grown for tumor implantation.
The above procedure for trypsinizing and centrifuging the cells were followed. The supernatant was aspirated and the cell pellet was resuspended in 10 ml of sterile PBS and the cells were counted. The cells were centrifuged and then resuspended with appropriate volume of sterile PBS for injection of correct number of cells needed for tumor implantation. In the case of MDA-435, 100 million cells were suspended with 2.0 ml of sterile PBS to a final concentration of 50 million cells/ml in order to inject 5 million cells in 0.1 ml/mouse.
Mice (CD-1 nu/nu) were obtained from Charles River Laboratories: nomenclature: Crl:CD-1-nuBR, Age: 6-8 weeks. The mice were allowed to acclimate for 1 week prior to their being used in an experimental procedure.
Implantation of the MDA-435 tumor cell suspension took place into the corpus adiposum of the female CD-1 nu/nu mouse. […] Tumor cells were implanted subcutaneously into the fat body located in the right quadrant of the abdomen at the juncture of the os coxae (pelvic bone) and the os femoris (femur). 5 million MDA-435 cells in 0.1 ml of sterile PBS were injected using 27 G (½ inch) needle. MDA-435 tumors developed 2-3 weeks after implantation.
Compound stock solutions were prepared by dissolving the compound in cell-culture-grade DMSO (dimethyl sulfoxide) at the desired concentration. This stock solution in DMSO was sonicated in an ultrasonic water bath until all the powder dissolved.

[2] = format: in vivo; conditions: mice treated with Paclitaxel and Compound (1); FIG. 2
Protocol: The in vivo anti-cancer enhancing effect of novel compounds was assessed in tumor bearing mice using the tumor growth inhibition assay. Tumor cells were implanted by injection of a tumor cell suspension subcutaneously in the flank of a mouse. […] Animal then begun a multiple injection schedule where the compound and Paclitaxel were given by IV route of administration. Tumors were measured two times a week. During the course of this assay, animals were monitored daily for signs of toxicity including body weight loss.

SMILES: CC(=O)O[C@H]1C(=O)[C@@]2(C)[C@H]([C@H](OC(=O)c3ccccc3)[C@]3(O)C[C@H](OC(=O)[C@H](O)[C@@H](NC(=O)c4ccccc4)c4ccccc4)C(C)=C1C3(C)C)[C@]1(OC(C)=O)CO[C@@H]1C[C@@H]2O [Paclitaxel]
- % Tumor Growth ([1]; Example 13, Day 23, Group 2: Paclitaxel 2 mg/kg alone, IV, 3 times a week for 3 weeks): 86%
- % Tumor Growth ([1]; Example 13, Day 23, Group 3: Paclitaxel 5 mg/kg alone, IV, 3 times a week for 3 weeks): 55%
- Average Tumor Volume (mm^3) on Day 23 ([1]; Example 13, Group 2: Paclitaxel 2 mg/kg alone, IV, 3 times a week for 3 weeks): 259.8 mm^3
- Average Tumor Volume (mm^3) on Day 23 ([1]; Example 13, Group 3: Paclitaxel 5 mg/kg alone, IV, 3 times a week for 3 weeks): 164.8 mm^3
- Average Tumor Volume [mm^3] ([1]; Example 14, Day 48, Group 2: Paclitaxel 10 mg/kg alone, IV, 3 times a week for 3 weeks): 105 mm^3 and 105.4 mm^3
- % Tumor Growth Inhibition on Day 48 ([1]; Example 14, Group 2: Paclitaxel 10 mg/kg alone, IV, 3 times a week for 3 weeks): 86%
- Anti-tumor activity ([1]; Example 14: Paclitaxel 10 mg/kg alone, IV, 3 times a week for 3 weeks): significant anti-tumor activity was observed
- Average % Tumor Growth Inhibition on Day 27 ([1]; Example 15, Group 2: Paclitaxel 5 mg/kg alone, IV, 3 times a week for 3 weeks): 19%

SMILES: CN(NC(=O)CC(=O)NN(C)C(=S)c1ccccc1)C(=S)c1ccccc1 [Compound (1), N-Malonyl-bis[N′-methyl-N′-(thiobenzoyl)hydrazide]]
- Weight loss over the treatment period [2]: little if any weight loss
- Enhancement of anti-tumor activity of Paclitaxel ([1]; Example 12, FIG. 1: Compound (1) 25 or 50 mg/kg + Paclitaxel 5 mg/kg, IV, 3 times a week for 3 weeks): significantly enhanced anti-tumor activity of Paclitaxel
- % Tumor Growth ([1]; Example 13, Day 23, Groups 4-5: compound 80 mg/kg alone, IV, 3 times a week for 3 weeks): 90%
- % Tumor Growth ([1]; Example 13, Day 23, Groups 6 and 8: compound 80 mg/kg + Paclitaxel 2 mg/kg, IV, 3 times a week for 3 weeks): 64%
- % Tumor Growth ([1]; Example 13, Day 23, Groups 7 and 9: compound 80 mg/kg + Paclitaxel 5 mg/kg, IV, 3 times a week for 3 weeks): 35%
- Average Tumor Volume (mm^3) on Day 23 ([1]; Example 13, Groups 4-5: compound 80 mg/kg alone, IV, 3 times a week for 3 weeks): 270.0 mm^3
- Average Tumor Volume (mm^3) on Day 23 ([1]; Example 13, Groups 6 and 8: compound 80 mg/kg + Paclitaxel 2 mg/kg, IV, 3 times a week for 3 weeks): 193.3 mm^3
- Average Tumor Volume (mm^3) on Day 23 ([1]; Example 13, Groups 7 and 9: compound 80 mg/kg + Paclitaxel 5 mg/kg, IV, 3 times a week for 3 weeks): 106.2 mm^3
- Enhancement of anti-tumor activity of Paclitaxel ([1]; Example 13: compound 80 mg/kg + Paclitaxel at both 2 mg/kg and 5 mg/kg, IV, 3 times a week for 3 weeks): significantly enhanced anti-tumor activity of Paclitaxel
- Average Tumor Volume [mm^3] ([1]; Example 14, Day 48, Group 3: Compound (1) 50 mg/kg alone, IV, 3 times a week for 3 weeks): 754.9 mm^3
- Average Tumor Volume [mm^3] ([1]; Example 14, Day 48, Group 4: Compound (1) 25 mg/kg + Paclitaxel 10 mg/kg, IV, 3 times a week for 3 weeks): 0.59 mm^3
- % Tumor Growth Inhibition on Day 48 ([1]; Example 14, Group 3: Compound (1) 50 mg/kg alone, IV, 3 times a week for 3 weeks): 0%
- Tumor volume, fold less than with Paclitaxel alone or Compound (1) alone ([1]; after 24 days of treatment, Paclitaxel 5 mg/kg + Compound (1) 25 mg/kg versus Paclitaxel 5 mg/kg only or Compound (1) 50 mg/kg only, FIG. 1): about five

From patent publication US7671092B2, “Paclitaxel enhancer compounds” (Synta Pharmaceuticals Corp., priority 2001, dated 2010)
